According to ChEMBL document CHEMBL1201862, “PubChem BioAssay data set” (2004):
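A five-concentration, 48-hour dose response in 96-well plates underlies each endpoint, interpolated linearly between surrounding concentrations. GI50 = concentration required for 50% inhibition of growth.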 Calls of active or inactive are those of the source. No stated cut-off is given here; in the data, active = GI50 up to about 1.1 µM and inactive = higher.

Columns and labels:
Assay in all cases: DTP human tumour cell line panel, 48 h
ACHN = test system: ACHN
MDA-N = test system: MDA-N
IGROV-1 = test system: IGROV-1
T47D = test system: T47D
M14 = test system: M14
PC-3 = test system: PC-3
SK-OV-3 = test system: SK-OV-3
NCI/ADR-RES = test system: NCI/ADR-RES
SF-539 = test system: SF-539
SK-MEL-2 = test system: SK-MEL-2
NCI-H522 = test system: NCI-H522
HOP-92 = test system: HOP-92
SF-268 = test system: SF-268
SK-MEL-28 = test system: SK-MEL-28
K562 = test system: K562
MOLT-4 = test system: MOLT-4
DU-145 = test system: DU-145
CCRF-CEM = test system: CCRF-CEM
KM12 = test system: KM12
SR = test system: SR
786-0 = test system: 786-0
HCT-116 = test system: HCT-116
BT-549 = test system: BT-549
U-251 = test system: U-251
RXF 393 = test system: RXF 393
A549 = test system: A549
LOX IMVI = test system: LOX IMVI
MDA-MB-231 = test system: MDA-MB-231
OVCAR-8 = test system: OVCAR-8
MDA-MB-435 = test system: MDA-MB-435
UO-31 = test system: UO-31
HL-60 = test system: HL-60
A498 = test system: A498
TK-10 = test system: TK-10
OVCAR-3 = test system: OVCAR-3
NCI-H226 = test system: NCI-H226
CAKI-1 = test system: CAKI-1
SNB-75 = test system: SNB-75
NCI-H460 = test system: NCI-H460
SK-MEL-5 = test system: SK-MEL-5
SNB-19 = test system: SNB-19
HCT-15 = test system: HCT-15
HCC 2998 = test system: HCC 2998
RPMI-8226 = test system: RPMI-8226
Malme-3M = test system: Malme-3M
SF-295 = test system: SF-295
HT-29 = test system: HT-29
NCI-H23 = test system: NCI-H23
SW-620 = test system: SW-620
COLO 205 = test system: COLO 205
SN12C = test system: SN12C
Hs-578T = test system: Hs-578T
OVCAR-4 = test system: OVCAR-4
HOP-62 = test system: HOP-62
UACC-257 = test system: UACC-257
MCF7 = test system: MCF7
EKVX = test system: EKVX
OVCAR-5 = test system: OVCAR-5
UACC-62 = test system: UACC-62

CN(CCn1cnc2c1c(=O)n(C)c(=O)n2C)C1CCCCC1
GI50 (ACHN): > 100 µM (inactive) | GI50 (MDA-N): > 100 µM (inactive) | GI50 (IGROV-1): > 100 µM (inactive) | GI50 (T47D): > 100 µM (inactive) | GI50 (M14): > 100 µM (inactive) | GI50 (PC-3): > 100 µM (inactive) | GI50 (SK-OV-3): > 100 µM (inactive) | GI50 (NCI/ADR-RES): > 100 µM (inactive) | GI50 (SF-539): > 100 µM (inactive) | GI50 (SK-MEL-2): > 100 µM (inactive) | GI50 (NCI-H522): > 100 µM (inactive) | GI50 (HOP-92): > 100 µM (inactive) | GI50 (SF-268): > 100 µM (inactive) | GI50 (SK-MEL-28): > 100 µM (inactive) | GI50 (K562): > 100 µM (inactive) | GI50 (MOLT-4): > 100 µM (inactive) | GI50 (DU-145): > 100 µM (inactive) | GI50 (CCRF-CEM): > 100 µM (inactive) | GI50 (KM12): > 100 µM (inactive) | GI50 (SR): > 100 µM (inactive) | GI50 (786-0): > 100 µM (inactive) | GI50 (HCT-116): > 100 µM (inactive) | GI50 (BT-549): > 100 µM (inactive) | GI50 (U-251): > 100 µM (inactive) | GI50 (RXF 393): > 100 µM (inactive) | GI50 (A549): > 100 µM (inactive) | GI50 (LOX IMVI): > 100 µM (inactive) | GI50 (MDA-MB-231): > 100 µM (inactive) | GI50 (OVCAR-8): > 100 µM (inactive) | GI50 (MDA-MB-435): > 100 µM (inactive) | GI50 (UO-31): > 100 µM (inactive) | GI50 (HL-60): > 100 µM (inactive) | GI50 (A498): > 100 µM (inactive) | GI50 (TK-10): > 100 µM (inactive) | GI50 (OVCAR-3): > 100 µM (inactive) | GI50 (NCI-H226): > 100 µM (inactive) | GI50 (CAKI-1): > 100 µM (inactive) | GI50 (SNB-75): > 100 µM (inactive) | GI50 (NCI-H460): > 100 µM (inactive) | GI50 (SK-MEL-5): > 100 µM (inactive) | GI50 (SNB-19): > 100 µM (inactive) | GI50 (HCT-15): > 100 µM | GI50 (HCC 2998): > 100 µM (inactive) | GI50 (RPMI-8226): > 100 µM (inactive) | GI50 (Malme-3M): > 100 µM (inactive) | GI50 (SF-295): > 100 µM (inactive) | GI50 (HT-29): > 100 µM (inactive) | GI50 (NCI-H23): > 100 µM (inactive) | GI50 (SW-620): > 100 µM (inactive) | GI50 (COLO 205): > 100 µM (inactive) | GI50 (SN12C): > 100 µM (inactive) | GI50 (Hs-578T): > 100 µM (inactive) | GI50 (OVCAR-4): > 100 µM (inactive) | GI50 (HOP-62): > 100 µM (inactive) | GI50 (UACC-257): > 100 µM (inactive) | GI50 (MCF7): > 100 µM (inactive) | GI50 (EKVX): > 100 µM (inactive) | GI50 (OVCAR-5): > 100 µM (inactive) | GI50 (UACC-62): > 100 µM (inactive)
